Blank lines part the entries; values can stand above or below the compound they belong to.
What was measured:
MDM2 = settings: read-out: binding affinity towards MDM2 (Kd); ref 22 (Thean et al.); cited from earlier work
[1] = test system: SJSA-1 osteosarcoma cell line (MDM2-amplified, wild-type p53); type: cell-based, human; settings: SJSA-1 cells, 50 μM VIP116, 2 h incubation
[2] = test system: SJSA-1 human osteosarcoma xenografts; assay: Tumor uptake and tissue distribution in mice bearing SJSA-1 xenografts; type: in vivo, athymic mice
[3] = In vivo metabolic stability; settings: athymic mice without tumors, i.v., plasma 4 h post-injection; RP-HPLC; n = 2/time point
[4] = Tumor uptake and tissue distribution in mice bearing SJSA-1 xenografts; type: in vivo, athymic mice; settings: athymic, mouse, iv, 166.5 kBq, total radioactivity
[5] = Lipophilicity, shake-flask n-octanol/PBS; type: physicochemical; settings: n-octanol/phosphate-buffered saline, pH 7.4

SMILES: CC(=O)N[C@@H](CCCCN)C(=O)NCCCCCC(=O)N[C@H](C(=O)N[C@@H](CO)C(=O)N[C@@H](Cc1ccccc1)C(=O)N[C@]1(C)CCCCCCC=CCCC[C@@](C)(C(=O)N[C@@H](CCC(=O)O)C(=O)N[C@@H](CC(N)=O)C(=O)N[C@@H](Cc2ccccc2)C(N)=O)NC(=O)[C@H](CC(C)C)NC(=O)[C@H](CC(C)C)NC(=O)[C@H](C)NC(=O)[C@H](Cc2c[nH]c3ccccc23)NC(=O)[C@H](Cc2ccc(O)cc2)NC(=O)[C@H](CCC(=O)O)NC1=O)[C@@H](C)O [VIP116]
- Kd (MDM2): 15.1 ± 1.7 nM

SMILES: CC(=O)N[C@@H](CCCCNC(=O)c1cccc(I)c1)C(=O)NCCCCCC(=O)N[C@H](C(=O)N[C@@H](CO)C(=O)N[C@@H](Cc1ccccc1)C(=O)N[C@]1(C)CCCCCCC=CCCC[C@@](C)(C(=O)N[C@@H](CCC(=O)O)C(=O)N[C@@H](CC(N)=O)C(=O)N[C@@H](Cc2ccccc2)C(N)=O)NC(=O)[C@H](CC(C)C)NC(=O)[C@H](CC(C)C)NC(=O)[C@H](C)NC(=O)[C@H](Cc2c[nH]c3ccccc23)NC(=O)[C@H](Cc2ccc(O)cc2)NC(=O)[C@H](CCC(=O)O)NC1=O)[C@@H](C)O [[^125I]SIB-VIP116] [listing 1 of 2 here]
- blocking of cell uptake [1]: > 85%
- Blood radioactivity ([2]; 30 min after i.v. injection, n = 5): 8.33 ± 1.18 %ID/g
- radioactivity found in the urine ([2]; 2 h after i.v. injection (data not shown)): ≤ 0.93 % ID
- Tumor uptake (SJSA-1 xenograft) ([2]; 2 h after i.v. injection, n = 5): 2.19 ± 0.56 %ID/g

Further lines, results first:

- % of radioactivity in plasma as intact labeled peptide [3]: about 80%
SMILES: CC(=O)N[C@@H](CCCCNC(=O)c1cccc(I)c1)C(=O)NCCCCCC(=O)N[C@H](C(=O)N[C@@H](CO)C(=O)N[C@@H](Cc1ccccc1)C(=O)N[C@]1(C)CCCCCCC=CCCC[C@@](C)(C(=O)N[C@@H](CCC(=O)O)C(=O)N[C@@H](CC(N)=O)C(=O)N[C@@H](Cc2ccccc2)C(N)=O)NC(=O)[C@H](CC(C)C)NC(=O)[C@H](CC(C)C)NC(=O)[C@H](C)NC(=O)[C@H](Cc2c[nH]c3ccccc23)NC(=O)[C@H](Cc2ccc(O)cc2)NC(=O)[C@H](CCC(=O)O)NC1=O)[C@@H](C)O [[*I]SIB-VIP116] [listing 1 of 2 here]

- tissue uptake at 0.5 h ([4]; blood): 8.33 ± 1.18 %ID/g
- tissue uptake at 2 h ([4]; tumor): 2.19 ± 0.56 %ID/g
SMILES: CC(=O)N[C@@H](CCCCNC(=O)c1cccc(I)c1)C(=O)NCCCCCC(=O)N[C@H](C(=O)N[C@@H](CO)C(=O)N[C@@H](Cc1ccccc1)C(=O)N[C@]1(C)CCCCCCC=CCCC[C@@](C)(C(=O)N[C@@H](CCC(=O)O)C(=O)N[C@@H](CC(N)=O)C(=O)N[C@@H](Cc2ccccc2)C(N)=O)NC(=O)[C@H](CC(C)C)NC(=O)[C@H](CC(C)C)NC(=O)[C@H](C)NC(=O)[C@H](Cc2c[nH]c3ccccc23)NC(=O)[C@H](Cc2ccc(O)cc2)NC(=O)[C@H](CCC(=O)O)NC1=O)[C@@H](C)O [[*I]SIB-VIP116] [listing 2 of 2 here]

- logD [5]: 1.45 ± 0.05
- tissue uptake at 0.5 h ([4]; bladder): 0.61 ± 0.21 %ID/g
- tissue uptake at 2 h ([4]; bladder): 0.58 ± 0.34 %ID/g
- tissue uptake at 6 h ([4]; bladder): 0.95 ± 0.78 %ID/g
- tissue uptake at 24 h ([4]; bladder): 0.29 ± 0.09 %ID/g
- tissue uptake at 2 h ([4]; blood): 6.84 ± 1.92 %ID/g
- tissue uptake at 6 h ([4]; blood): 5.12 ± 0.9 %ID/g
- tissue uptake at 24 h ([4]; blood): 0.62 ± 0.2 %ID/g
- tissue uptake at 0.5 h ([4]; bone): 0.38 ± 0.19 %ID/g
- tissue uptake at 2 h ([4]; bone): 0.33 ± 0.23 %ID/g
- tissue uptake at 6 h ([4]; bone): 0.29 ± 0.2 %ID/g
- tissue uptake at 24 h ([4]; bone): 0.16 ± 0.04 %ID/g
- tissue uptake at 0.5 h ([4]; brain): 0.24 ± 0.13 %ID/g
- tissue uptake at 2 h ([4]; brain): 0.25 ± 0.08 %ID/g
- tissue uptake at 6 h ([4]; brain): 0.2 ± 0.06 %ID/g
- tissue uptake at 24 h ([4]; brain): 0.02 ± 0.01 %ID/g
- tissue uptake at 0.5 h ([4]; heart): 2.52 ± 0.49 %ID/g
- tissue uptake at 2 h ([4]; heart): 2.44 ± 0.49 %ID/g
- tissue uptake at 6 h ([4]; heart): 2.14 ± 0.38 %ID/g
- tissue uptake at 24 h ([4]; heart): 0.37 ± 0.08 %ID/g
- tissue uptake at 0.5 h ([4]; kidneys): 3.06 ± 1.82 %ID/g
- tissue uptake at 2 h ([4]; kidneys): 2.54 ± 0.5 %ID/g
- tissue uptake at 6 h ([4]; kidneys): 2.5 ± 0.48 %ID/g
- tissue uptake at 24 h ([4]; kidneys): 0.63 ± 0.12 %ID/g
- tissue uptake at 0.5 h ([4]; large intestine): 0.06 ± 0.06 %ID/g
- tissue uptake at 2 h ([4]; large intestine): 0.24 ± 0.2 %ID/g
- tissue uptake at 6 h ([4]; large intestine): 4.44 ± 1.9 %ID/g
- tissue uptake at 24 h ([4]; large intestine): 1.87 ± 1.29 %ID/g
- tissue uptake at 0.5 h ([4]; liver): 13.5 ± 6.18 %ID/g
- tissue uptake at 2 h ([4]; liver): 18.4 ± 1.45 %ID/g
- tissue uptake at 6 h ([4]; liver): 11.4 ± 4.46 %ID/g
- tissue uptake at 24 h ([4]; liver): 4.72 ± 2.84 %ID/g
- tissue uptake at 0.5 h ([4]; lungs): 4.27 ± 1.06 %ID/g
- tissue uptake at 2 h ([4]; lungs): 2.72 ± 1.16 %ID/g
- tissue uptake at 6 h ([4]; lungs): 2.49 ± 1.17 %ID/g
- tissue uptake at 24 h ([4]; lungs): 0.33 ± 0.19 %ID/g
- tissue uptake at 0.5 h ([4]; muscle): 0.16 ± 0.06 %ID/g
- tissue uptake at 2 h ([4]; muscle): 0.24 ± 0.07 %ID/g
- tissue uptake at 6 h ([4]; muscle): 0.25 ± 0.11 %ID/g
- tissue uptake at 24 h ([4]; muscle): 0.16 ± 0.09 %ID/g
- tissue uptake at 0.5 h ([4]; skin): 0.57 ± 0.17 %ID/g
- tissue uptake at 2 h ([4]; skin): 0.88 ± 0.18 %ID/g
- tissue uptake at 6 h ([4]; skin): 1.22 ± 0.47 %ID/g
- tissue uptake at 24 h ([4]; skin): 0.52 ± 0.13 %ID/g
- tissue uptake at 0.5 h ([4]; small intestine): 0.43 ± 0.09 %ID/g
- tissue uptake at 2 h ([4]; small intestine): 2.17 ± 0.99 %ID/g
- tissue uptake at 6 h ([4]; small intestine): 3.84 ± 1.29 %ID/g
- tissue uptake at 24 h ([4]; small intestine): 0.86 ± 0.35 %ID/g
- tissue uptake at 0.5 h ([4]; spleen): 1.29 ± 0.61 %ID/g
- tissue uptake at 2 h ([4]; spleen): 1.8 ± 0.65 %ID/g
- tissue uptake at 6 h ([4]; spleen): 1.99 ± 0.44 %ID/g
- tissue uptake at 24 h ([4]; spleen): 0.58 ± 0.24 %ID/g
- tissue uptake at 0.5 h ([4]; stomach): 0.34 ± 0.09 %ID/g
- tissue uptake at 2 h ([4]; stomach): 0.53 ± 0.17 %ID/g
- tissue uptake at 6 h ([4]; stomach): 1.9 ± 1.15 %ID/g
- tissue uptake at 24 h ([4]; stomach): 0.84 ± 0.43 %ID/g
- tissue uptake at 0.5 h ([4]; thyroid): 0.89 ± 0.17 %ID/g
- tissue uptake at 2 h ([4]; thyroid): 1.14 ± 0.43 %ID/g
- tissue uptake at 6 h ([4]; thyroid): 1.19 ± 0.36 %ID/g
- tissue uptake at 24 h ([4]; thyroid): 0.27 ± 0.14 %ID/g
- tissue uptake at 0.5 h ([4]; tumor): 1.8 ± 0.75 %ID/g
- tissue uptake at 6 h ([4]; tumor): 2.11 ± 0.29 %ID/g
- tissue uptake at 24 h ([4]; tumor): 0.36 ± 0.12 %ID/g
SMILES: CC(=O)N[C@@H](CCCCNC(=O)c1cccc(I)c1)C(=O)NCCCCCC(=O)N[C@H](C(=O)N[C@@H](CO)C(=O)N[C@@H](Cc1ccccc1)C(=O)N[C@]1(C)CCCCCCC=CCCC[C@@](C)(C(=O)N[C@@H](CCC(=O)O)C(=O)N[C@@H](CC(N)=O)C(=O)N[C@@H](Cc2ccccc2)C(N)=O)NC(=O)[C@H](CC(C)C)NC(=O)[C@H](CC(C)C)NC(=O)[C@H](C)NC(=O)[C@H](Cc2c[nH]c3ccccc23)NC(=O)[C@H](Cc2ccc(O)cc2)NC(=O)[C@H](CCC(=O)O)NC1=O)[C@@H](C)O [[^125I]SIB-VIP116] [listing 2 of 2 here]
